Results: patent publication US9617286B2, “Fungicide N-[(trisubstitutedsilyl)methyl]-carboxamide derivatives” (BAYER INTELLECTUAL PROPERTY GMBH, priority 2011, dated 2017)

Columns and labels:
Pyrenophora teres = assay: In vivo preventive test on Pyrenophora teres (barley); settings: preventive spray (DMF/alkylaryl polyglycol ether), 500 ppm of active ingredient, evaluated 7-9 days after inoculation
Description: Solvent: 49 parts by weight of N,N-dimethylformamide Emulsifier: 1 part by weight of alkylaryl polyglycol ether To produce a suitable preparation of active compound, 1 part by weight of active compound is mixed with the stated amounts of solvent and emulsifier, and the concentrate is diluted with water to the desired concentration. To test for preventive activity, young plants are sprayed with the preparation of active compound at the stated rate of application. One day after this treatment, the plants are inoculated with an aqueous spore suspension of Pyrenophora teres. The plants remain for 48 hours in an incubation cabinet at 22° C. and a relative atmospheric humidity of 100%. Then the plants are placed in a greenhouse at a temperature of approximately 20° C. and a relative atmospheric humidity of approximately 80%.

[1] = log P by HPLC on reversed-phase column (C 18), EEC Directive 79/831 Annex V.A8; format: physicochemical; settings: 40° C., 0.1% aqueous formic acid and acetonitrile, linear gradient 10% to 90% acetonitrile
Description: In table 1, the log P values were determined in accordance with EEC Directive 79/831 Annex V.A8 by HPLC (High Performance Liquid Chromatography) on a reversed-phase column (C 18), using the method described below:
Temperature: 40° C.; Mobile phases: 0.1% aqueous formic acid and acetonitrile; linear gradient from 10% acetonitrile to 90% acetonitrile.
Calibration was carried out using unbranched alkan-2-ones (comprising 3 to 16 carbon atoms) with known log P values (determination of the log P values by the retention times using linear interpolation between two successive alkanones). lambda-max-values were determined using UV-spectra from 200 nm to 400 nm and the peak values of the chromatographic signals.

Septoria tritici = assay: In vivo preventive test on Septoria tritici (wheat); settings: preventive spray, 500 ppm of active ingredient, grading 24 days after contamination
Description: Wheat plants (“Scipion” variety), sown in starter cups on a 50/50 peat soil pozzolana substrate and grown at 22° C., are treated at the 1 leaf stage (10 cm height) by spraying with the active ingredient prepared as described above. Plants, used as controls, are treated with the mixture of acetone/tween/DMSO/water not containing the active material. After 24 hours, the plants are contaminated by spraying the leaves with an aqueous suspension of cryopreserved Septoria tritici spores (500 000 spores per mL). The contaminated wheat plants are incubated for 72 hours at 18° C. and at 100% relative humidity, and then for 21 days at 90% relative humidity. Grading (% of efficacy) is carried out 24 days after the contamination, in comparison with the control plants.

Puccinia recondita = assay: In vivo preventive test on Puccinia recondita (brown rust on wheat); settings: preventive spray, 500 ppm of active ingredient, grading 12 days after contamination
Description: Wheat plants (“Scipion” variety), sown in starter cups on a 50/50 peat soil pozzolana substrate and grown at 22° C., are treated at the 1 leaf stage (10 cm height) by spraying with the active ingredient prepared as described above. Plants, used as controls, are treated with the mixture of acetone/tween/DMSO/water not containing the active material. After 24 hours, the plants are contaminated by spraying the leaves with an aqueous suspension of Puccinia recondita spores (100 000 spores per mL). The spores are collected from an infected plant and are suspended in water containing 2.5 mL/L of Tween 80 at 10%. The contaminated wheat plants are incubated for 24 hours at 20° C. and at 100% relative humidity, and then for 10 days at 20° C. and at 70-80% relative humidity. Grading (% of efficacy) is carried out 12 days after the contamination, in comparison with the control plants.

Sphaerotheca fuliginea = assay: In vivo preventive test on Sphaerotheca fuliginea (powdery mildew on cucurbits); settings: gherkin plants, preventive spray, 500 ppm of active ingredient, grading 12 days after contamination
Description: Gherkin plants (“Vert petit de Paris” variety), sown in starter cups on a 50/50 peat soil-pozzolana substrate and grown at 24° C., are treated at the Z11 cotyledon stage by spraying with the active ingredient prepared as described above. Plants, used as controls, are treated with the mixture of acetone/tween/DMSO/water not containing the active material. After 24 hours, the plants are contaminated by spraying the cotyledons with an aqueous suspension of Sphaerotheca fuliginea spores (100 000 spores per mL). The spores are collected from infected plants. The contaminated gherkin plants are incubated at about 20° C. and at 70-80% relative humidity. Grading (% of efficacy) is carried out 12 days after the contamination, in comparison with the control plants.

| SMILES | Efficacy (Pyrenophora teres) | logP [1] | other results |
| --- | --- | --- | --- |
| C[Si](C)(CN(C(=O)c1cccnc1C(F)(F)F)C1CC1)c1cccc(Cl)c1 [Example 33] | 80% | 4.34 | – |
| C[Si](C)(CNC(=O)c1cccnc1Cl)c1ccccc1Cl [Example 40] | – | 2.94 | Efficacy (Septoria tritici): 96% |
| C[Si](C)(CN(C(=O)c1cccnc1C(F)F)C1CC1)c1cc(F)ccc1Cl [Example 51] | 97% | 3.89 | Efficacy (Septoria tritici): 100%; Efficacy (Puccinia recondita): 88% |
| C[Si](C)(CNC(=O)c1cccnc1C(F)(F)F)c1ccccc1Cl [Example 39] | – | 3.25 | Efficacy (Septoria tritici): 96% |
| C[Si](C)(CN(C(=O)c1nccnc1C(F)(F)F)C1CC1)c1cccs1 [Example 82] | 95% | 4.01 | – |
| CCc1ccccc1[Si](C)(C)CN(C(=O)c1nccnc1C(F)(F)F)C1CC1 [Example 21] | 100% | 4.77 | Efficacy (Sphaerotheca fuliginea): 98%; Efficacy (Septoria tritici): 86%; Efficacy (Puccinia recondita): 75% |
| C[Si](C)(CNC(=O)c1nccnc1C(F)(F)F)c1ccccc1 [Example 7] | 100% | 3.15 | Efficacy (Septoria tritici): 93% |
| C[Si](C)(CN(C(=O)c1cccnc1C(F)F)C1CC1)c1cc(Cl)cc(Cl)c1 [Example 68] | 80% | 4.49 | – |
| C[Si](C)(CN(C(=O)c1nccnc1C(F)(F)F)C1CC1)c1ccccc1 [Example 9] | 100% | 4.13 | Efficacy (Septoria tritici): 86% |
| C[Si](C)(CN(C(=O)c1nccnc1C(F)(F)F)C1CC1)c1ccc(Cl)cc1Cl [Example 58] | 100% | 5.25 | – |
| C[Si](C)(Cc1ccc(Cl)cc1Cl)CN(C(=O)c1nccnc1C(F)(F)F)C1CC1 [Example 111] | 95% | 5.45 | – |
| Cc1ccccc1[Si](C)(C)CN(C(=O)c1cccnc1Cl)C1CC1 [Example 13] | 100% | 3.80 | Efficacy (Septoria tritici): 97% |
| C[Si](C)(CN(C(=O)c1cccnc1C(F)(F)F)C1CC1)c1ccc2ccccc2c1 [Example 78] | 95% | 4.56 | – |
| C[Si](C)(CN(C(=O)c1ccccc1C(F)(F)F)C1CC1)c1ccccc1Cl [Example 25] | – | 5.03 | – |
| CN(C[Si](C)(C)c1cc(Cl)cc(Cl)c1)C(=O)c1cccnc1C(F)F [Example 122] | – | 3.92 | – |
| C[Si](C)(CN(C(=O)c1nccnc1C(F)(F)F)C1CC1)c1cc(Cl)cc(Cl)c1 [Example 64] | – | 4.95 | – |
| C[Si](C)(CN(C(=O)c1cccnc1C(F)(F)F)C1CC1)c1ccccc1F [Example 15] | 100% | 3.96 | Efficacy (Sphaerotheca fuliginea): 72%; Efficacy (Septoria tritici): 71%; Efficacy (Puccinia recondita): 75% |
| C[Si](C)(CN(C(=O)c1cccnc1Cl)C1CC1)c1ccc2ccccc2c1 [Example 75] | – | 4.23 | – |
| C[Si](C)(CN(C(=O)c1ccccc1C(F)(F)F)C1CC1)c1ccc(Cl)cc1Cl [Example 61] | – | 5.72 | – |
| C[Si](C)(Cc1ccccc1)CN(C(=O)c1ccccc1C(F)(F)F)C1CC1 [Example 96] | – | 4.90 | – |
| C[Si](C)(CNC(=O)c1cccnc1Cl)c1ccccc1 [Example 3] | – | 2.61 | Efficacy (Septoria tritici): 90%; Efficacy (Puccinia recondita): 75% |
| C[Si](C)(CN(C(=S)c1cccnc1C(F)F)C1CC1)c1ccc(Cl)cc1Cl [Example 124] | – | 5.13 | – |
| C[Si](C)(CN(C(=O)c1ccccc1C(F)(F)F)C1CC1)c1cccc2ccccc12 [Example 71] | – | 5.19 | – |
| C[Si](C)(Cc1ccc(Cl)cc1Cl)CN(C(=O)c1cccnc1Cl)C1CC1 [Example 112] | – | 4.90 | – |
| C[Si](C)(CN(C(=O)c1ccccc1I)C1CC1)c1ccc2ccccc2c1 [Example 76] | – | 5.36 | – |

| SMILES | Efficacy (Pyrenophora teres) | logP [1] | other results |
| --- | --- | --- | --- |
| C[Si](C)(CN(C(=O)c1ccccc1I)C1CC1)c1ccc(Cl)cc1Cl [Example 60] | – | 5.88 | – |
| C[Si](C)(Cc1ccccc1Cl)CN(C(=O)c1ccccc1C(F)(F)F)C1CC1 [Example 102] | – | 5.31 | – |
| C[Si](C)(Cc1ccccc1)CN(C(=O)c1cccnc1Cl)C1CC1 [Example 94] | – | 3.87 | – |
| C[Si](C)(CN(C(=O)c1cccnc1C(F)(F)F)C1CC1)c1ccccc1C(F)(F)F [Example 55] | 97% | 4.39 | Efficacy (Septoria tritici): 64% |
| C[Si](C)(Cc1ccccc1Cl)CN(C(=O)c1cccnc1Cl)C1CC1 [Example 100] | – | 4.25 | – |
| C[Si](C)(Cc1cc(Cl)cc(Cl)c1)CN(C(=O)c1ccccc1I)C1CC1 [Example 119] | – | 6.14 | – |
| C[Si](C)(CN(C(=O)c1cccnc1Cl)C1CC1)c1ccccc1F [Example 17] | 86% | 3.58 | Efficacy (Septoria tritici): 79% |
| CC[Si](C)(CN(C(=O)c1cccnc1Cl)C1CC1)c1ccccc1Cl (stereo not drawn) [Example 38] | – | 4.34 | Efficacy (Septoria tritici): 80% |
| C[Si](C)(CN(C(=O)c1ccccc1I)C1CC1)c1cccs1 [Example 84] | – | 4.59 | – |
| C[Si](C)(CN(C(=O)c1ccccc1I)C1CC1)c1cccc(Cl)c1 [Example 30] | – | 5.14 | – |
| C[Si](C)(CN(C(=S)c1cccnc1C(F)F)C1CC1)c1ccc2ccccc2c1 [Example 125] | – | 4.72 | – |
| C[Si](C)(Cc1cc(Cl)cc(Cl)c1)CN(C(=O)c1cccnc1C(F)(F)F)C1CC1 [Example 121] | – | 5.22 | – |
| C[Si](C)(Cc1cc(Cl)cc(Cl)c1)CN(C(=O)c1nccnc1C(F)(F)F)C1CC1 [Example 116] | – | 5.45 | – |
| C[Si](C)(CNC(=O)c1nccnc1C(F)(F)F)c1ccccc1Cl [Example 41] | – | 3.50 | Efficacy (Sphaerotheca fuliginea): 78%; Efficacy (Septoria tritici): 90% |
| CC1=C(C(=O)NC[Si](C)(C)c2ccccc2)SCCO1 [Example 6] | – | 3.13 | – |
| C[Si](C)(CN(C(=O)c1nccnc1C(F)(F)F)C1CC1)c1ccccc1C(F)(F)F [Example 54] | 100% | 4.61 | Efficacy (Sphaerotheca fuliginea): 83%; Efficacy (Septoria tritici): 93% |
| C[Si](C)(Cc1ccc(Cl)cc1Cl)CN(C(=O)c1ccccc1C(F)(F)F)C1CC1 [Example 114] | – | 5.94 | – |
| C[Si](C)(CN(C(=O)c1ccccc1C(F)(F)F)C1CC1)c1cc(Cl)cc(Cl)c1 [Example 66] | – | 5.65 | – |
| CC[Si](C)(CN(C(=O)c1cccnc1C(F)(F)F)C1CC1)c1ccccc1Cl (stereo not drawn) [Example 37] | – | 4.71 | – |
| C[Si](C)(CN(C(=O)c1cccnc1Cl)C1CC1)c1ccc(Cl)cc1Cl [Example 59] | – | 4.64 | – |
| C[Si](C)(CN(C(=O)c1cccnc1C(F)(F)F)C1CC1)c1cccs1 [Example 81] | – | 3.80 | – |
| C[Si](C)(CN(C(=O)c1ccccc1C(F)(F)F)C1CC1)c1cccs1 [Example 85] | – | 4.51 | – |
| C[Si](C)(CN(C(=O)c1cccnc1Cl)C1CC1)c1cc(Cl)cc(Cl)c1 [Example 65] | – | 4.61 | – |
| C[Si](C)(Cc1cccc(Cl)c1)CN(C(=O)c1ccccc1I)C1CC1 [Example 107] | – | 5.45 | – |
| C[Si](C)(CN(C(=O)c1ccccc1I)C1CC1)c1ccsc1 [Example 89] | – | 4.49 | – |
